Results on two molecules are retold here after ChEMBL document CHEMBL1145989, “Development of a water-soluble matrix metalloproteinase inhibitor as an intra-arterial infusion drug for prevention of restenosis after angioplasty” (J Med Chem, 2003).

The target in test [1] is Matrix metalloproteinase-9 (Homo sapiens, UniProt P14780). Kind of test: Inhibition of human Matrix metalloprotease-9 (MMP-9).
Test [2] has as its target 72 kDa type IV collagenase (Homo sapiens, UniProt P08253). Kind of test: Inhibition of human Matrix metalloprotease-2 (MMP-2).
Test [3] concerns the target Macrophage metalloelastase (Homo sapiens, UniProt P39900). Kind of test: Inhibition of human Matrix metalloprotease-12 (MMP-12).

SMILES strings stand for the structures.

Chain of 72 kDa type IV collagenase (P08253 whole entry): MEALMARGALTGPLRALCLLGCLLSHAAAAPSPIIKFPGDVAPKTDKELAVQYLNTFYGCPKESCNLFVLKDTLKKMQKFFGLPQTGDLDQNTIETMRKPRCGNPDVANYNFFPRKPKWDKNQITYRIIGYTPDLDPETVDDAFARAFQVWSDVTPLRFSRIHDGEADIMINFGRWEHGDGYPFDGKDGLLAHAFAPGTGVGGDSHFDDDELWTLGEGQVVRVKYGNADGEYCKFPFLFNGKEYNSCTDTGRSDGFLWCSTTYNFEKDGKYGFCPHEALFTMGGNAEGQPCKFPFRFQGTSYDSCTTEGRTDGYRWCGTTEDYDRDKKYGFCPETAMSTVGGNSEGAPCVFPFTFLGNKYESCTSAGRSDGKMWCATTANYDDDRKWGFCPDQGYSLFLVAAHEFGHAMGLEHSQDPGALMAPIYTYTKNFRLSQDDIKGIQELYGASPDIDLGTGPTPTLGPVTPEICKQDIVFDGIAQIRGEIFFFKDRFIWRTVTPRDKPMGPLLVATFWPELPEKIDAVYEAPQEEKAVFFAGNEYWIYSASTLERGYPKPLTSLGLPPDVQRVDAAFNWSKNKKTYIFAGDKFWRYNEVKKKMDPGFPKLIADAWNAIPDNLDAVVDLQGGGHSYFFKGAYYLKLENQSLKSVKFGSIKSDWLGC
Chain of Macrophage metalloelastase (P39900 whole entry): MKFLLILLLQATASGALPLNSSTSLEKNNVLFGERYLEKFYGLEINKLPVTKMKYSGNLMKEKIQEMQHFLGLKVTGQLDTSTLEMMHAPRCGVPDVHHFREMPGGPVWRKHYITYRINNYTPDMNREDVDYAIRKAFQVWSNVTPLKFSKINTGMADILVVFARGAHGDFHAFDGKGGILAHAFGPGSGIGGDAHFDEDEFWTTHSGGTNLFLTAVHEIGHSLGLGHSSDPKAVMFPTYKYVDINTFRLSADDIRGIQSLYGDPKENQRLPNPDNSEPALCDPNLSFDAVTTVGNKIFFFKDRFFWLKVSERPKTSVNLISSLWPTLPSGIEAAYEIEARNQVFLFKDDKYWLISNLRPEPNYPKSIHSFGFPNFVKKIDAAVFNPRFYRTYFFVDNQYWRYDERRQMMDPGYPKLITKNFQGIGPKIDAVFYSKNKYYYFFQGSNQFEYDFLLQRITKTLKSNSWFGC
Chain of Matrix metalloproteinase-9 (P14780 whole entry): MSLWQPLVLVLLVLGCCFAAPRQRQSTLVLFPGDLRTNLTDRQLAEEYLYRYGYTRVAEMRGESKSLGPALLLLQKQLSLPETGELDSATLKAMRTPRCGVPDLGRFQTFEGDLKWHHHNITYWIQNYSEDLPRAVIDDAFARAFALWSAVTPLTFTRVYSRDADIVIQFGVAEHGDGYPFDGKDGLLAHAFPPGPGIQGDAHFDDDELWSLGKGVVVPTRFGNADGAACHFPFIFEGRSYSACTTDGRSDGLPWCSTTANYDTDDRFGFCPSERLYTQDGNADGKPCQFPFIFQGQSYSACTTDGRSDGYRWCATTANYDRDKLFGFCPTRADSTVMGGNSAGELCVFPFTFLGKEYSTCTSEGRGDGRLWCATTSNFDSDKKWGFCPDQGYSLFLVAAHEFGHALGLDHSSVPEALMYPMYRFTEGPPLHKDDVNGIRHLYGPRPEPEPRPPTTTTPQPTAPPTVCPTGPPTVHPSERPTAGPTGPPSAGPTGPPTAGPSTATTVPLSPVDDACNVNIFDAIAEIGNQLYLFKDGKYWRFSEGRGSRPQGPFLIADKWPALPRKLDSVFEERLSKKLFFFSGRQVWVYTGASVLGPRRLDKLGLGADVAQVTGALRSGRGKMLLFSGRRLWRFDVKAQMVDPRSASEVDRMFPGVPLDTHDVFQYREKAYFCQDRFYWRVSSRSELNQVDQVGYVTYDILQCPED

Take `C[C@@H](C[C@@H](CO)NC(=O)c1ccc(Oc2ccccc2)cc1)C(=O)NO`: the IC50 was determined as 0.8 nM in test [1], 0.65 nM in test [2] and 3.5 nM in test [3].

Take `C[C@@H](C[C@@H](COC(=O)CCC(=O)O)NC(=O)c1ccc(Oc2ccccc2)cc1)C(=O)NO`: the IC50 worked out at 2.8 nM in test [1], 1.1 nM in test [2] and 2.6 nM in test [3].

Usually IC50 stands for the concentration needed to halve the response being measured.
